Measured values: ChEMBL document CHEMBL1126489, “N1-sterically hindered 2H-imidazol-2-one angiotensin II receptor antagonists: The conversion of surmountable antagonists to insurmountable antagonists” (Bioorg Med Chem Lett, 1993)

Target: T1, Angiotensin II receptor (Rattus norvegicus, UniProt P29089+P25095+P35351)
T1 sequence (P29089 whole entry): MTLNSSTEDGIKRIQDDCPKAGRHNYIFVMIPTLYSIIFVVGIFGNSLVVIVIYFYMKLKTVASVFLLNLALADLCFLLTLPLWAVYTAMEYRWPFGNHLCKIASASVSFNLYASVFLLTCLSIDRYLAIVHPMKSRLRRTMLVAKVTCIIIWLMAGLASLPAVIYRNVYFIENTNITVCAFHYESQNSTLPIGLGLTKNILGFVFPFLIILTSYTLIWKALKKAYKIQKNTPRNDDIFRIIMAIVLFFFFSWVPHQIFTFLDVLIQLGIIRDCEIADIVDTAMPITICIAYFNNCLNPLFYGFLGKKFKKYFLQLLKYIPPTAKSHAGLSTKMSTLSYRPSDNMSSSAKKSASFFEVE
T1 sequence (P25095 whole entry): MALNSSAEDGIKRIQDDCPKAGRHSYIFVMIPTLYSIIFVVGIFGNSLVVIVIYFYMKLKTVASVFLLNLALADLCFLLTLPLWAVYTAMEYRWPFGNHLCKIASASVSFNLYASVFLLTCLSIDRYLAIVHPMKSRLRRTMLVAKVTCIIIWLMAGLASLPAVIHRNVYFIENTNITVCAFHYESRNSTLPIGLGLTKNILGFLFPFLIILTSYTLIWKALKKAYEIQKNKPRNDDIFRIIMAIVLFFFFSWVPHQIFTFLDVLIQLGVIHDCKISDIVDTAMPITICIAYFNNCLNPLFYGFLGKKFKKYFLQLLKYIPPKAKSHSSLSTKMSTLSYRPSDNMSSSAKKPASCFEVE
T1 sequence (P35351 whole entry): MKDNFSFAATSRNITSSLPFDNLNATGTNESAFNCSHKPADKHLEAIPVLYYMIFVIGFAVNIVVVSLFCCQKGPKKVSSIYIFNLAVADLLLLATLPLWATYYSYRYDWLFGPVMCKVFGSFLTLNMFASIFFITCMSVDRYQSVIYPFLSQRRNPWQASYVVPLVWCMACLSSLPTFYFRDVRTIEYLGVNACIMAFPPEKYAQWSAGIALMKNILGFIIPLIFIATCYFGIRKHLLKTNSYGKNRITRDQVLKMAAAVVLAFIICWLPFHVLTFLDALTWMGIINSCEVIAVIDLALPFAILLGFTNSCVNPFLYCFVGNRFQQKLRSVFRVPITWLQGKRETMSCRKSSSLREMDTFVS
Assay: Inhibition of [125I]-AII binding to Angiotensin II receptor of rat uterine membrane

| Compound | IC50 [nM] |
| --- | --- |
| CCCCc1cn(-c2ccccc2CC)c(=O)n1Cc1ccc(-c2ccccc2-c2nn[nH]n2)nc1 | 4.5 |
| CCCCc1cn(-c2c(C(C)C)cccc2C(C)C)c(=O)n1Cc1ccc(-c2ccccc2-c2nn[nH]n2)nc1 | 34 |
| CCCCc1cn(-c2c(CC)cccc2CC)c(=O)n1Cc1ccc(-c2ccccc2-c2nn[nH]n2)nc1 | 5 |
| CCCCc1cn(-c2ccccc2C(C)C)c(=O)n1Cc1ccc(-c2ccccc2-c2nn[nH]n2)nc1 | 14 |
| CCCCc1cn(-c2ccccc2C)c(=O)n1Cc1ccc(-c2ccccc2-c2nn[nH]n2)nc1 | 9.4 |
| CCCCc1cn(-c2ccccc2C(C)(C)C)c(=O)n1Cc1ccc(-c2ccccc2-c2nn[nH]n2)nc1 | 19 |
| CCCCc1cn(-c2c(C)cccc2C)c(=O)n1Cc1ccc(-c2ccccc2-c2nn[nH]n2)nc1 | 5 |
| CCCCc1nc(CCCC)n(Cc2ccc(-c3ccccc3-c3nn[nH]n3)cc2)n1 | 5.6 |
| CCCCc1cn(-c2ccccc2)c(=O)n1Cc1ccc(-c2ccccc2-c2nn[nH]n2)nc1 | 45 |
| CCCCC1=NC2(CCCC2)C(=O)N1Cc1ccc(-c2ccccc2-c2nnn[nH]2)cc1 [IRBESARTAN] | 1.3 |
| CCCCc1cn(CCCC)c(=O)n1Cc1ccc(-c2ccccc2-c2nn[nH]n2)cc1 [SC-51895] | 12 |
| CCCCc1cn(CCCC)c(=O)n1Cc1ccc(-c2ccccc2-c2nn[nH]n2)nc1 [SC-52892] | 6.5 |
| CCCCc1cn([C@H]2[C@H](C)CCC[C@@H]2C)c(=O)n1Cc1ccc(-c2ccccc2-c2nn[nH]n2)nc1 [SC-55634] | 4.9 |
